Measured values taken from patent US6737383B1, “Herbicidal oxadiazolidines” (priority 1999, dated 2004).

Tests used:
Amaranthus rudis (AMATA) = assay: Test F preemergence, alone and in mixture with rimsulfuron, AMATA; format: in vivo; details: 21 days after treatment, 0-100 scale
Procedure: (§1) Abutilon theophrasti (ABUTH), Chenopodium album (CHEAL), Amaranthus rudis (AMATA), Setaria faberii (SETFA), Panicum dichotomiflorum (PANDI), and Digitaria sanguinalis (DIGSA) were grown from seed in pots of an artificial potting mixture in a greenhouse. Compounds of the present invention were applied at 70 and 105 g ai/ha preemergence. Rimsulfuron was applied at 8.8 and 17.5 g ai/ha. Mixtures of the compounds of the present invention and rimsulfuron were also applied.
(§2) Following application, the plants were maintained by watering as needed. A fertilizer solution of Peter's 20-20-20 (10 pounds/5 gallons of water) plus Sprint 330, a Iron Chelate micronutrient, (113.5 grams/5 gallons of water) was injected into the water with an Anderson fertilizer injection system to provide approximately 219 ppm of nitrogen with each watering. Artificial lighting was used to supplement natural light to produce a 14 hour photoperiod and: an additional one hour light period was used between 1:00 am to 2:00 am for a night interruption. Greenhouse temperatures were targeted for 27° C. in the day and 21° C. at night. At 21 days after treatment, all plants were evaluated for injury as compared to control plants that were sprayed only with non-phytotoxic solvent.
(§3) Colby's equation was used to calculate the expected additive herbicidal effect of the mixtures of Compound 21 and the mixture partners listed above. […]

[1] = test system: Chenopodium album (CHEAL); assay: Test F preemergence, alone and in mixture with rimsulfuron, CHEAL; format: in vivo; details: 21 days after treatment, 0-100 scale
Procedure: as §1, §2, §3

Setaria faberii (SETFA) = assay: Test F preemergence, alone and in mixture with rimsulfuron, SETFA; format: in vivo; details: 21 days after treatment, 0-100 scale
Procedure: as §1, §2, §3

[2] = test system: Panicum dichotomiflorum (PANDI); assay: Test F preemergence, alone and in mixture with rimsulfuron, PANDI; format: in vivo; details: 21 days after treatment, 0-100 scale
Procedure: as §1, §2, §3

[3] = test system: Abutilon theophrasti (ABUTH); assay: Test F preemergence, alone and in mixture with rimsulfuron, ABUTH; format: in vivo; details: 21 days after treatment, 0-100 scale
In short: (§4)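 Greenhouse pot plants treated preemergence with compound at 70 and 105 g ai/ha, rimsulfuron at 8.8 and 17.5 g ai/ha, or mixtures; 27° C day/21° C night, 14 hour photoperiod. Injury scored at 21 days after treatment against solvent-sprayed controls; expected additive effect of mixtures calculated by Colby's equation.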

[4] = test system: Digitaria sanguinalis (DIGSA); assay: Test F preemergence, alone and in mixture with rimsulfuron, DIGSA; format: in vivo; details: 21 days after treatment, 0-100 scale
In short: as §4

barnyardgrass = assay: Test A barnyardgrass; format: in vivo, Echinochloa crus-galli; details: 0 to 10 scale where 0 is no effect and 10 is complete control
In short: (§5)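 Ratings came from visual comparison with untreated plants about eleven days after treatment, scored 0 for no effect through 10 for complete control. Both soil-drench preemergence and runoff-spray postemergence applications were made at the same time.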

morningglory = assay: Test A morningglory; format: in vivo, Ipomoea spp.; details: 0 to 10 scale where 0 is no effect and 10 is complete control
In short: as §5

crabgrass = assay: Test A crabgrass; format: in vivo, Digitaria spp.; details: 0 to 10 scale where 0 is no effect and 10 is complete control
Procedure: Seeds of barnyardgrass (Echinochloa crus-galli), crabgrass (Digitaria spp.), morningglory (Ipomoea spp.), and velvetleaf (Abutilon theophrasti) were planted into a sandy loam soil and treated preemergence by soil drench with test chemicals formulated in a non-phytotoxic solvent mixture which includes a surfactant At the same time, these crop and weed species were also treated postemergence sprayed to runoff, with test chemicals formulated in the same manner.
Plants ranged in height from two to eighteen cm and were in the one to two leaf stage for the postemergence treatment. Treated plants and untreated controls were maintained in a greenhouse for approximately eleven days, after which all treated plants were compared to untreated controls and visually evaluated for injury. Plant response ratings, summarized in Table A, are based on a 0 to 10 scale where 0 is no effect and 10 is complete control.

[5] = Alone: Cmpd. rate 70, Rimsulfuron 0
[6] = Alone: Cmpd. rate 105, Rimsulfuron 0

Row | SMILES | AMATA Observed (Amaranthus rudis (AMATA); [5]) [%] | AMATA Observed (Amaranthus rudis (AMATA); [6]) [%] | CHEAL Observed [1, 5] [%] | CHEAL Observed [1, 6] [%] | SETFA Observed (Setaria faberii (SETFA); [5]) [%] | SETFA Observed (Setaria faberii (SETFA); [6]) [%] | PANDI Observed [2, 5] [%] | PANDI Observed [2, 6] [%] | ABUTH Observed [3, 5] [%] | ABUTH Observed [3, 6] [%] | DIGSA Observed [4, 5] [%] | DIGSA Observed [4, 6] [%] | Plant response rating, Barnyardgrass (barnyardgrass; Postemergence, Rate 1000 g/ha) | Plant response rating, Barnyardgrass (barnyardgrass; Pre-emergence, Rate 2000 g/ha) | Plant response rating, Morningglory (morningglory; Postemergence, Rate 1000 g/ha) | Plant response rating, Morningglory (morningglory; Pre-emergence, Rate 2000 g/ha) | Plant response rating, Crabgrass (crabgrass; Postemergence, Rate 1000 g/ha) | Plant response rating, Crabgrass (crabgrass; Pre-emergence, Rate 2000 g/ha)
1 | CC(C)N(C(=O)n1oc(=O)n(C2CC2)c1=O)c1ccc(F)cc1 [Compound 242] | 20 | 55 | 30 | 100 | 60 | 75 | 60 | 80 | 50 | 70 | 100 | 100 |  |  |  |  |  | 
2 | CCN(CC)C(=O)n1oc(=O)n(-c2c(C)cccc2C)c1=O [Compound 2] |  |  |  |  |  |  |  |  |  |  |  |  | 8 | 9 | 0 | 0 | 0 | 2
